With `NC(=O)N(O)Cc1ccc2c(c1)CCN2CCCc1ccccc1` the melting point was 94 to 94.5 °C.
`CCOC(=O)c1cc(=O)c2cc(C(C)(C)C)cc(C(C)(C)C)c2o1` gave a melting point of 130 to 132 °C.
`COC=C(C(=O)OC)N(C)c1nc(-c2ccc(Cl)cc2)cs1` gave a melting point of 104 to 105 °C.
Compound `Cc1ccc(C(=O)COC(=O)NC(C)C)cc1` has a melting point of 130 to 133 °C.
For `CC(C)CCc1c(-c2ccc(S(N)(=O)=O)cc2)cnn(-c2ccc(F)c(F)c2)c1=O`, the melting point was 171 to 173 °C.
`COc1ccc2c(c1)C(C)(CC#N)C(=O)N2C` (configuration not stated) showed a melting point of 75.5 to 76 °C.
Work on `N#Cc1cnc2c(c1)[nH]c(=O)n2[C@H]1CC[C@H](O)CC1` yielded a melting point of 274 to 275 °C.
For `CCOC(=O)c1ccc(C=O)cn1`, the melting point was 59 °C.
Work on `N#CN=C(NCCO)NCc1ccc(-c2csc(N=C(N)N)n2)o1` yielded a melting point of 208 to 209 °C.
In the case of `Oc1ccc(N2CCN(c3ccc4ccccc4n3)CC2)cc1`, the melting point is reported as 198 °C.
With `O=C(c1ccc(C(F)(F)F)cc1O)N1CCN(c2ccc(OC[C@H]3CCn4cc([N+](=O)[O-])nc4O3)cc2)CC1` the melting point was 217 to 220 °C.
`C(=Cc1ccc(C=Cc2ccccc2)c2ccccc12)c1ccccc1` showed a melting point of 189 °C.
`CCCCCCCCCC(=O)Nc1cc(C(=O)O)c2cc[nH]c2c1` showed a melting point of 248 to 250 °C.
Work on `COc1ccc(-c2c(C#N)nn(-c3c(Cl)cc(C(F)(F)F)cc3Cl)c2N)cc1` yielded a melting point of 222 °C.
Compound `CC(C)c1cccc(C(C)C)c1NC(=O)CS(=O)(=O)CCCl` has a melting point of 166 to 168 °C.
Compound `CC1=Cc2cc(C#N)ccc2OC1(C)C` has a melting point of 55 °C.
`Fc1ccc(-c2c[nH]cc2-c2ccc(F)cc2)cc1` gave a melting point of 142 °C.
With `Cc1cccc(C)c1-n1cc(C#N)c(=O)n(C)c1=O` the melting point was 198 to 200 °C.
For `COc1ccc(CN[C@@H](C(=O)O)[C@@H](O)[C@H](Cc2ccccc2)NC(=O)OC(C)(C)C)cc1`, the melting point was 203 to 206 °C.
With `CC(=O)N1CCC(NC(=O)Nc2ccccc2CCc2cc(C(C)(C)C)c(O)c(C(C)(C)C)c2)CC1` the melting point was 218 to 221 °C.
Work on `Cc1sc(-c2ccccc2)nc1COc1ccc(CCl)cc1` yielded a melting point of 100 to 101 °C.
`O=C(CN1CCN(CC(=O)N2CCC3(CC2)Cn2cc([N+](=O)[O-])nc2O3)CC1)Nc1ccc(C(F)(F)F)cc1` showed a melting point of 133 to 135 °C.
Compound `COC(=O)Cn1c(C)cc(Sc2ccccc2)c(N)c1=O` has a melting point of 65 to 66 °C.
`Cc1nc(C)n2c1CN=C(c1ccccc1F)c1cc(Cl)ccc1-2` gave a melting point of 178 to 180 °C.
In the case of `CCCc1nc(N2CCc3ccccc3CC2)c(C#N)c(=O)n1CC(F)(F)F`, the melting point is reported as 104 to 106 °C.
`O=C(NN=C(Cc1ccccc1)c1ccccn1)OCc1ccccc1` gave a melting point of 155 °C.
With `O=c1c2c(Cl)cc(Cl)cc2n(Cc2ccccc2)c(=O)n1Cc1ccc(Br)cc1` the melting point was 163 to 168 °C.
For `NC1([C@@H]2CCN(c3ccc4c(=O)c(C(=O)O)cn(C5CC5)c4c3OC(F)F)C2)CC1`, the melting point was 206 to 208 °C.
In the case of `CC(=O)Nc1c(C#N)cnn1-c1ccc(Cl)c(Cl)c1Cl`, the melting point is reported as 222 to 224 °C.
With `OCC1OC(n2cnc3c(Cl)cc(Cl)nc32)C(O)C1O` (configuration not stated) the melting point was 148 to 150 °C.
For `CSCc1ccc(-c2cccnc2)o1`, the melting point was 67 to 68 °C.
For `COc1ncccc1NC(=NC#N)NC(NC(=O)c1cc(Cl)cc(Cl)c1)C(C)(Cl)Cl` (configuration not stated), the melting point was 149 to 150 °C.
`O=C1c2ccc(NC(=O)C3CCCC3)cc2C(=O)c2cc(NC(=O)C3CCCC3)ccc21` showed a melting point of 281 °C.
Compound `Cc1cc(COc2c(Cl)cc(CSc3ccc4ccccc4c3)cc2Cl)oc(=O)c1` has a melting point of 125 °C.
`COC(=O)c1ccc2occ(-c3ccc(SC)c(Cl)c3)c2c1` showed a melting point of 115 to 116 °C.
`O=c1[nH]c2cc(Cl)cc(Cl)c2c(=O)n1Cc1ccc([N+](=O)[O-])cc1` showed a melting point of 227 to 230 °C.
For `CCCCC(=O)Oc1c(-c2ccc(-c3ccccc3)cc2)nc2ccc(F)cc2c1C(=O)O`, the melting point was 214 to 217 °C.
In the case of `CC(C)(C)c1cc(Cl)c(O)c(C=O)c1`, the melting point is reported as 75 to 77 °C.
`Cc1ccc(O[C@H]2CCN(C(=O)OCc3ccccc3)C[C@H]2O)cc1C` (relative stereo) gave a melting point of 140 to 143 °C.
In the case of `COc1ccc([C@@H]2CN(C)CC[C@@H]2NC(=O)c2ccc(Cl)c(Cl)c2)cc1OC` (relative stereo), the melting point is reported as 134 to 135 °C.
`CC1CCNC(=C2C(=O)CC(C)(C)CC2=O)C1` (configuration not stated) gave a melting point of 174 °C.
`Clc1ncc(-c2ccnc(N3CCOCC3)n2)c2ccccc12` showed a melting point of 180 to 181 °C.
Compound `CC(=O)N1CCc2cc(C(=O)C(C)Br)ccc21` (configuration not stated) has a melting point of 140 to 142 °C.
Work on `N#Cc1ccsc1S(N)(=O)=O` yielded a melting point of 152 to 155 °C.
In the case of `CSC(C[C@H](NC(=O)[C@H](CC(C)C)NC(=O)OCc1ccccc1)C(C)=O)c1ccccc1` (some centres not stated), the melting point is reported as 119 to 120 °C.
Work on `Cc1ccc2c(c1)C(c1ccccc1Cl)C(=O)N2` (configuration not stated) yielded a melting point of 208 °C.
Work on `N#Cc1cc(F)c(NC(=O)CC(=O)C(F)(F)F)cc1F` yielded a melting point of 176 to 181 °C.
With `Clc1c(OCCN2CCCCC2)ccc2cc3ccc(OCCN4CCCCC4)c(Cl)c3nc12` the melting point was 173 to 174 °C.
For `CCOC(=O)c1cnc2n(c1=O)C(C)CCC2C(=S)NC` (configuration not stated), the melting point was 199 to 200 °C.
Compound `O=C(Oc1cc([N+](=O)[O-])cc([N+](=O)[O-])c1O)c1ccccc1` has a melting point of 150 to 152 °C.
With `C[C@@H](C(=O)Nc1ccc(-n2nc(C(F)(F)F)cc2C2CC2)cc1)n1nnc2cccnc21` the melting point was 186 to 191 °C.
`O=C(O)c1cc(-c2ccc(Cl)cc2)nn1Cc1ccc(Cl)cc1Cl` gave a melting point of 218 °C.
With `Brc1nc(-c2cccnc2)[nH]c1Br` the melting point was 226 to 227 °C.
In the case of `Cc1ccc(C2C3=C(CC(C)(C)CC3=O)NC3=C2C(=O)CC(C)(C)C3)cc1C`, the melting point is reported as > 300 °C.
For `COc1ccc(C2(CCN3CCC(C(=O)c4nc5ccccc5n4Cc4ccc(F)cc4)CC3)CCN(C(=O)c3ccccc3)C2)cc1OC` (configuration not stated), the melting point was 42 to 44 °C.
Work on `COc1cc(OC)c2c(=O)cc(-c3n[nH]c4ccccc34)oc2c1` yielded a melting point of 253 to 255 °C.
In the case of `CN(C)C(=O)Nc1cc(O)cc(O)c1`, the melting point is reported as 230 °C.
Compound `CCc1cc(Cl)n2nccc2n1` has a melting point of 66 to 68 °C.
`C=C(CC(Cl)(Cl)Cl)c1cnc(Cl)c(Cl)c1` gave a melting point of 76 to 77 °C.
Compound `COc1cncc2nc(SCc3ccccc3)nn12` has a melting point of 114 to 116 °C.
Compound `COc1ccc(CNc2nc(CCC(=O)O)nc3sc4ccccc4c23)cc1Cl` has a melting point of 218 °C.
`O=C(O)CCC1(C(=O)O)NCC(=O)N1` (configuration not stated) gave a melting point of 202 to 205 °C.
With `Fc1cc2c(Nc3ccc(Br)c(Br)c3)ncnc2cn1` the melting point was 262 to 264 °C.
For `O=C(c1cc2cc3[nH]c(=O)[nH]c3cc2[nH]1)N1CCC(Cc2ccccc2)CC1`, the melting point was > 270 °C.
With `COc1ccc(C(N)=Nc2ccc(C(=O)O)cc2)cc1C12CC3CC(CC(C3)C1)C2` the melting point was 263 to 265 °C.
`COC(=O)C(=Cc1ccc(OCCc2nc(-c3ccccc3)oc2C)cc1)C(=O)OC` gave a melting point of 104 to 105 °C.
With `CC(C)n1c(C=O)c(-c2ccc(F)cc2)c(-c2ccc(F)cc2)c1C(=O)Nc1cccc(C(=O)N(C)C)c1` the melting point was 133 to 135 °C.
With `COc1ccc(C2Cc3cc(C(F)(F)F)ccc3NC(=O)C2CO)cc1` (configuration not stated) the melting point was 190 °C.
Work on `COc1cccc(CN2Cc3cc(OC)c(O)cc3C(OC)C2)c1` (configuration not stated) yielded a melting point of 133 to 134 °C.
Work on `CC1(C)OCCN1C(=O)C(Cl)Cl` yielded a melting point of 113 to 115 °C.
With `CCCCC(C#N)c1cccc(C(=O)c2cc3cc(C(=O)OC)sc3s2)c1` (configuration not stated) the melting point was 131 °C.
For `Cc1ccnc(Cl)c1C(=O)O`, the melting point was 152 to 154 °C.

Source: a melting point compilation (Tetko et al.; mined from patent text by program, amines drawn as free bases though some values may be those of a salt)
